Key:
Assay in all cases: Bliss excess, mean over the matrix (fraction); higher = more synergy
[1] = tested on: COR-L311 (Small Cell Lung Carcinoma)
Procedure, shortened: (§1)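 Cell lines in DMEM/F12 or RPMI with 10% FBS were plated in 1536-well plates, held 24 hours at 37°C, 5% CO2, then given two-drug dose matrices for 72 hours (DMSO typically 0.2%). Viability was read by CellTiter-Glo 2.0 luminescence and scaled as inhibition from 0 (vehicle wells) to 1 (blank wells). Combination Emax is the second-highest inhibition in the matrix; Bliss excess is observed combination effect minus expected EA + EB − EA·EB, EA and EB being single-agent effects.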

Hs-445 (Non-Cancerous) = tested on: Hs-445 (Non-Cancerous)
Procedure, shortened: as §1

[2] = tested on: JSC-1 (B-Cell Non-Hodgkin's Lymphoma)
Procedure, shortened: as §1

[3] = tested on: A3-KAW (B-Cell Non-Hodgkin's Lymphoma)
Procedure, shortened: as §1

[4] = tested on: NCI-H64 (Small Cell Lung Carcinoma)
Procedure, shortened: as §1

[5] = tested on: NCI-H2066 (Squamous Cell Lung Carcinoma)
Procedure, shortened: as §1

[6] = tested on: ONS-76 (Other Solid Carcinomas)
Procedure, shortened: as §1

FU97 (Gastric Carcinoma) = tested on: FU97 (Gastric Carcinoma)
Procedure, shortened: as §1

[7] = tested on: CAL-29 (Bladder Carcinoma)
Procedure, shortened: as §1

[8] = tested on: MDST8 (Colorectal Carcinoma)
Procedure, shortened: as §1

[9] = tested on: A549 (Lung Adenocarcinoma)
Procedure, shortened: as §1

[10] = tested on: COLO-320-HSR (Colorectal Carcinoma)
Procedure, shortened: as §1

[11] = tested on: CAPAN-2 (Pancreatic Carcinoma)
Procedure, shortened: as §1

[12] = tested on: SK-MG-1 (Low Grade Glioma)
Procedure, shortened: as §1

[13] = tested on: NCI-H1581 (Non-Small Cell Lung Carcinoma)
Procedure, shortened: as §1

[14] = tested on: NCI-H1693 (Lung Adenocarcinoma)
Procedure, shortened: as §1

[15] = tested on: NCI-H1650 (Lung Adenocarcinoma)
Procedure, shortened: as §1

PA-1 (Ovarian Carcinoma) = tested on: PA-1 (Ovarian Carcinoma)
Procedure, shortened: as §1

IGR-37 (Melanoma) = tested on: IGR-37 (Melanoma)
Procedure, shortened: as §1

[16] = tested on: ECC10 (Gastric Carcinoma)
Procedure, shortened: as §1

| Structure (SMILES) | Bliss excess [1] | Bliss excess (Hs-445 (Non-Cancerous)) | Bliss excess [2] | Bliss excess [3] | Bliss excess [4] | Bliss excess [5] | Bliss excess [6] | Bliss excess (FU97 (Gastric Carcinoma)) | Bliss excess [7] | Bliss excess [8] | Bliss excess [9] | Bliss excess [10] | Bliss excess [11] | Bliss excess [12] | Bliss excess [13] | Bliss excess [14] | Bliss excess [15] | Bliss excess (PA-1 (Ovarian Carcinoma)) | Bliss excess (IGR-37 (Melanoma)) | Bliss excess [16] |
| --- | --- | --- | --- | --- | --- | --- | --- | --- | --- | --- | --- | --- | --- | --- | --- | --- | --- | --- | --- | --- |
| C[C@@H](c1ccc2nccn2c1)n1nnc2ncc(-c3cnn(C)c3)nc21 [Savolitinib] + CC1(C)CCC(CN2CCN(c3ccc(C(=O)NS(=O)(=O)c4ccc(NCC5CCOCC5)c([N+](=O)[O-])c4)c(Oc4cnc5[nH]ccc5c4)c3)CC2)=C(c2ccc(Cl)cc2)C1 [Venetoclax] (first compound max 1 µM, 7x7, partner max 1 µM) | -0.022 | -0.0642 | -0.0638 | -0.023 | 0.0032 | -0.0524 | -0.0468 | -0.0344 | -0.0655 | -0.0546 | -0.0378 | -0.0223 | -0.0682 | -0.0549 | -0.0697 | -0.0639 | -0.0716 | -0.0163 | -0.0519 | 0.0258 |
| COc1nnc2ccc(N3CCC(c4ccc(OCCN5CCN(C)C(=O)[C@H]5C)cc4)CC3)nn12 [AZD5153] + Cn1cnc2c(F)c(Nc3ccc(Br)cc3Cl)c(C(=O)NOCCO)cc21 [Selumetinib] (first compound max 1 µM, 7x7, partner max 10 µM) | -0.0334 | -0.0232 | -0.0165 | 0.0182 | 0.0021 | -0.0123 | -0.0127 | -0.0254 | 0.0393 | 0.0646 | -0.0703 | -0.0095 | 0.0202 | -0.0443 | -0.0141 | 0.0093 | -0.0155 | 0.0002 | 0.0624 | 0.0419 |
| NC1(C(=O)N[C@@H](CCO)c2ccc(Cl)cc2)CCN(c2ncnc3[nH]ccc23)CC1 [Capivasertib] + CCN(CCO)CCCOc1ccc2c(Nc3cc(CC(=O)Nc4cccc(F)c4)[nH]n3)ncnc2c1 [AZD2811] (first compound max 10 µM, 7x7, partner max 1 µM) | -0.0461 | -0.0895 | 0.0082 | -0.0369 | 0.0427 | -0.0641 | -0.0191 | -0.004 | -0.0319 | 0.011 | -0.0365 | -0.0018 | -0.0213 | 0.0626 | -0.11 | -0.0446 | 0.0052 | 0.0219 | 0.0123 | -0.039 |
| COc1nnc2ccc(N3CCC(c4ccc(OCCN5CCN(C)C(=O)[C@H]5C)cc4)CC3)nn12 [AZD5153] + CC1(C)CCC(CN2CCN(c3ccc(C(=O)NS(=O)(=O)c4ccc(NCC5CCOCC5)c([N+](=O)[O-])c4)c(Oc4cnc5[nH]ccc5c4)c3)CC2)=C(c2ccc(Cl)cc2)C1 [Venetoclax] (first compound max 1 µM, 7x7, partner max 1 µM) | 0.0389 | 0.0178 | -0.0724 | -0.0095 | -0.0455 | -0.0919 | -0.0428 | -0.0452 | -0.103 | -0.0566 | -0.0659 | -0.0657 | -0.0149 | -0.0571 | -0.115 | -0.0464 | -0.0349 | -0.077 | -0.0171 | 0.0248 |
| CN(CCO)CC[C@H](CSc1ccccc1)Nc1ccc(S(=O)(=O)NC(=O)c2ccc(N3CCC([C@@H](O)c4ccccc4-c4ccc(Cl)cc4)CC3)cc2)cc1S(=O)(=O)C(F)(F)F [AZD4320] + Cc1cc2ncnn2cc1Nc1ncc2c(n1)n(C1CCOCC1)c(=O)n2C [AZD7648] (first compound max 1 µM, 7x7, partner max 10 µM) | 0.0219 | 0.0079 | -0.0113 | 0.0296 | -0.0449 | 0.0299 | -0.0301 | -0.0375 | -0.0074 | -0.0283 | -0.0263 | -0.0099 | -0.0217 | -0.0239 | -0.0158 | -0.0639 | -0.0227 | 0.0302 | -0.0132 | 0.025 |
| NC1(C(=O)N[C@@H](CCO)c2ccc(Cl)cc2)CCN(c2ncnc3[nH]ccc23)CC1 [Capivasertib] + Cn1cnc2c(F)c(Nc3ccc(Br)cc3Cl)c(C(=O)NOCCO)cc21 [Selumetinib] (first compound max 10 µM, 7x7, partner max 10 µM) | -0.0422 | 0.0479 | 0.0954 | 0.0622 | -0.0027 | -0.0867 | 0.0914 | 0.0653 | -0.0058 | 0.0211 | 0.0052 | 0.0222 | 0.0332 | 0.0059 | 0.0371 | -0.0375 | -0.0203 | -0.0114 | -0.0258 | 0.0563 |
| CN(C)CCCOc1ccc(-c2ccc3ncc4c(c3c2)n(C2CCOCC2)c(=O)n4C)cn1 [AZD0156] + CCN(CCO)CCCOc1ccc2c(Nc3cc(CC(=O)Nc4cccc(F)c4)[nH]n3)ncnc2c1 [AZD2811] (first compound max 1 µM, 7x7, partner max 1 µM) | 0.0607 | 0.045 | 0.0161 | 0.121 | 0.0802 | -0.0649 | -0.0169 | -0.0947 | 0.0269 | 0.0279 | -0.0431 | -0.0278 | -0.0637 | 0.0212 | -0.007 | -0.0274 | -0.0571 | 0.038 | -0.0191 | -0.0028 |
